{"source": "patent US20170198011A1", "about": "“COMPOSITION FOR TREATING SEPSIS OR SEPTIC SHOCK COMPRISING THE PEPTIDE ORIGINATED FROM THE SMAD6” (Medpacto, Inc., priority 2011, published 2017)", "key": {"[1]": {"test_system": "bacteria in peritoneal fluid", "assay": "Bacterial count in peritoneal fluid of CLP mice", "type": "in vivo", "settings": "subcutaneous injection, versus scrambled peptides", "text": "FIG. 7A is a graph showing cell counts in the peritoneal fluid taken from sepsis mice treated with scrambled peptides or Smaducin-6,\nIn mice with CLP-induced sepsis, the bacterial clearance of Smaducin-6 was examined. Smaducin-6 or the scrambled peptides were subcutaneously injected into CLP mice from which peritoneal fluid was then extracted from the mice, and bacteria in the fluid was counted. […] An examination was made to see whether this bacterial clearance of Smaducin-6 was attributed to the intraperitoneal migration of neutrophils. To this end, 2 and 14 hrs after induction of septic shock by injecting 60 mg/kg of LPS, Smaducin-6 or the scrambled peptides were injected into septic shock mice, and 24 hrs after the induction of septic shock, neutrophils were isolated from the peritoneal cavity using Histopaque-1077 (Sigma). Mouse neutrophils were counted using Trypan Blue (Sigma)."}, "IL-6": {"test_system": "IL-6", "assay": "IL-6 immunoblot in spleen and liver of CLP mice", "type": "in vivo", "settings": "immunoblotting"}, "[2]": {"test_system": "BALB/c mice with CLP-induced sepsis", "assay": "Survival of mice with CLP-induced sepsis", "type": "in vivo", "description": "(§1) For use in assay for therapeutic effects of Smaducin-6 on sepsis, BALB/c mice were subjected to CLP (cecal ligation puncture) to prepare suitable animal models of clinical sepsis. Two hours after CLP operation on the mice, Smaducin-6 was subcutaneously injected at a dose of 8 mg/kg, 12 mg/kg, or 16 mg/kg to the mice, and then three more times at regular intervals of 12 hrs. […] In this context, Smaducin-6 was initially injected at a dose of 16 mg/kg 2, 4, or 10 hrs after CLP operation, and then three more times at regular intervals of 12 hrs. Further, cells from various tissues of CLP mice were stained with hematoxylin-eosin to observe nucleus and cell morphology."}, "GRK2": {"test_system": "GRK2", "assay": "LPS-induced GRK2 expression in RAW264.7 macrophages (immunoblot)", "type": "cell-based, mouse", "settings": "RAW264.7 cells, 100 nM for 2 hrs, then LPS 2 hrs", "description": "To examine how Smaducin-6 interrupts with the LPS-induced downregulation of CXCR2, the levels of G-protein-coupled receptor kinase 2 (GRK2) in human neutrophils and RAW264.7 macrophages were measured. GRK2 is upregualted by LPS, which is known to suppress the expression of CXCR2."}, "TRAIL": {"test_system": "TRAIL", "assay": "TRAIL expression in splenocytes of CLP mice (flow cytometry, immunohistochemistry)", "type": "in vivo", "settings": "sepsis mice, flow cytometry and immunohistochemistry", "text": "FIG. 8E is a graph showing expression levels of TRAIL in splenocytes of mice subcutaneously injected with Smaducin-6 or scrambled peptides at 2 and 14 hrs after sepsis induction by CLP, as measured by FACS, the splenocytes being taken 24 hrs after sepsis induction, and\nAlso, the effect of Smaducin-6 on the expression of TRAIL in mice with CLP-induced sepsis was examined. Splenocytes from the mice were subjected to flow cytometry and immunohistochemistry for TRAIL in the same manner as in Examples 8B and 8D. In this context, rabbit antibody TRAIL (C92B9, cell signaling), and FITC-conjugated goat antibody to […] (NOVUS) were used as a primary and a secondary antibody, respectively."}, "[3]": {"test_system": "lung, liver and spleen of CLP mice", "assay": "Hematoxylin-eosin staining of tissues of CLP mice", "type": "in vivo, BALB/c mice", "settings": "16 mg/kg, compared to control", "description": "as §1"}, "[4]": {"test_system": "BALB/c mice with LPS-induced septic shock", "assay": "Survival of mice with LPS-induced septic shock", "type": "in vivo", "settings": "LPS 60 mg/kg intraperitoneal, 16 mg/kg injected four times every 12 hrs from 2 hrs after LPS", "description": "FIG. 5D is a graph showing survival rates of BALB/c mice treated with 16 mg/kg Smaducin-6 or scrambled peptides after septic shock is induced by LPS;\nMoreover, therapeutic effects of Smaducin-6 were examined in animal models of septic shock as well as CLP-induced sepsis. In this regard, LPS was intraperitoneally injected at a dose of 60 mg/kg into BALB/c mice, and from two hrs after LPS injection, Smaducin-6 was injected four times at regular intervals of 12 hrs into the mice."}, "IL6 inflammatory gene": {"test_system": "IL6 inflammatory gene", "assay": "LPS-induced IL-6 expression in RAW264.7 cells by quantitative real-time RT-PCR", "type": "cell-based", "settings": "RAW264.7 mouse macrophages, pre-treatment, then LPS", "description": "FIG. 4A is a graph showing IL-6 levels in RAW264.7 cells as measured by quantitative real-time RT-PCR after treatment with scrambled peptides (Pal-Scram; 100 nM) or Smaducin-6 and then with LPS,"}, "CXCR2": {"test_system": "CXCR2", "assay": "CXCR2 surface expression on human neutrophils by FACS", "type": "cell-based", "settings": "100 nM for 2 hrs, then LPS 2 hrs", "description": "FIG. 7C is a graph showing expression levels of CXCR2 on the surface of human neutrophils treated for 2 hrs with 100 nM scrambled peptides or Smaducin-6 and then for 2 hrs with LPS, as analyzed by FACS, and\nTo investigate the mechanism in which Smaducin-6 promotes peritoneal neutrophil migration, human neutrophils were treated for 2 hrs with 100 nM scrambled peptides or Smaducin-6 in advance of LPS treatment for 2 hrs. The expression of CXCR2, a chemokine receptor related with neutrophil migration, on the cell surface was analyzed using flow cytometry (FACS). Human neutrophils were isolated from normal human peripheral blood using Histopaque-1077 (Sigma) over a density gradient under the permission of the […] of Ajou University, School of Medicine (Suwon, Korea)."}, "IFN-β1": {"test_system": "IFN-β1", "assay": "IFN-β1 in peritoneal fluid (ELISA) and splenocytes (FACS) of CLP mice", "type": "in vivo", "settings": "injected 2 and 14 hrs after CLP", "text": "FIG. 8C is a graph showing levels of the IFN-β1cytokine in peritoneal fluid from mice subcutaneously injected with Smaducin-6 or scrambled peptides at 2 and 14 hrs after sepsis induction by CLP, as analyzed by ELISA, the peritoneal fluid being taken 24 hrs after CLP induction,\nFIG. 8D is a graph showing expression levels of IFN-β1 in splenocytes of mice subcutaneously injected with Smaducin-6 or scrambled peptides at 2 and 14 hrs after sepsis induction by CLP, as measured by FACS, the splenocytes being taken 24 hrs after sepsis induction,\nTo analysis the mechanism of the anti-apoptotic activity of Smaducin-6, an examination was made of the IFN-β1-induced TRAIL expression. In this regard, 2 and 14 hrs after CLP, the scrambled peptides or the Smaducin-6 peptide was injected to the mice, and the expression of IFN-β1 in the peritoneal fluid from the mice was analyzed using ELISA in the same manner as in Example 6. In splenocytes from each mouse group, the expression level of IFN-β1 was determined using flow cytometry (FACS). For flow cytometry, IFN-β1 was detected by FITC-conjugated anti-mouse IFN-β antibody (22400-3, interferon source), and stained before data analysis using CellQuest Pro software (BD Bioscience)."}}, "note": "Where no end group is shown, it is not given here. The star is where a group is joined. Palmitoyl = CCCCCCCCCCCCCCCC(=O)*", "data": [{"substance": "Smaducin-6: palmitic acid conjugated to N-terminus of the 20-amino-acid peptide of Smad6 position 422 to 441, GGRALVVRKVPPGYSIKVFD (SEQ ID NO: 1) (Palmitoyl-GGRALVVRKVPPGYSIKVFD)", "values": [{"measurement": "number of bacteria in the peritoneal fluid", "setting": "[1]", "result": "significantly lower"}, {"measurement": "IL-6 expression in the spleen and the liver", "setting": "IL-6", "result": "reduce"}, {"measurement": "survival rate of CLP mice", "setting": "[2]; 12 mg/kg subcutaneous, first injection 2 hrs after CLP, three more times every 12 hrs (FIG. 5A)", "result": 70, "unit": "%"}, {"measurement": "survival rate of CLP mice", "setting": "[2]; 16 mg/kg subcutaneous, first injection 2 hrs after CLP, three more times every 12 hrs (FIG. 5A)", "result": 90, "unit": "%"}, {"measurement": "survival rate of CLP mice", "setting": "[2]; 16 mg/kg, initial injection 2 hrs after CLP (FIG. 5B)", "result": 90, "unit": "%"}, {"measurement": "survival rate of CLP mice", "setting": "[2]; 16 mg/kg, initial injection 4 hrs after CLP (FIG. 5B)", "result": 60, "unit": "%"}, {"measurement": "LPS-induced GRK2 expression", "setting": "GRK2", "result": "downregualed"}, {"measurement": "TRAIL expression in splenocytes", "setting": "TRAIL", "result": "reduced"}, {"measurement": "morphology of cells and tissues of the lung, the liver and the spleen", "setting": "[3]", "result": "morphologically restored"}, {"measurement": "survival in LPS-induced septic shock", "setting": "[4]", "result": "therapeutic"}, {"measurement": "expression of LPS-induced IL6 inflammatory gene", "setting": "IL6 inflammatory gene", "result": "reduced the expression of LPS-induced IL6 inflammatory gene in a dose-dependent manner"}, {"measurement": "expression of CXCR2 on the cell surface", "setting": "CXCR2", "result": "kept the expression of CXCR2 at a normal level"}, {"measurement": "production of IFN-β1 in peritoneal fluid", "setting": "IFN-β1; ELISA (FIG. 8C)", "result": "inhibited"}, {"measurement": "expression level of IFN-β1 in splenocytes", "setting": "IFN-β1; FACS (FIG. 8D)", "result": "inhibited"}]}]}
